Source: patent US20210379066A1, “COMBINATIONS OF POSITIVE ALLOSTERIC MODULATORS AND NICOTINIC ACETYLCHOLINE RECEPTOR AGONISTS FOR TREATING OCULAR CONDITIONS” (Oyster Point Pharma, Inc., priority 2018, published 2021)
“And” between values parts separate entries of the source, which are not always exact repeats. Equal entries are not always repeated. Where two headings read alike, the source gives them in different places.

Experiments:
[1] = Pharmacokinetics in human subjects after 28 days of intranasal administration (Example 7); type: in vivo
Description: Blood plasma for the patients was collected on Day 29 predose (time 0) and after a series of time points (10 min, 20 min, 30 min, 1 hr, 2 hrs, 4 hrs, 5 hrs, 6 hrs, 7 hrs, 8 hrs, and 24 hrs) after a single administration of drug. The blood plasma was analyzed for Compound 1.
The following pharmacokinetic parameters for Compound 1 were calculated: • Cmax: Maximum observed concentration, observed by inspection of individual study participant plasma concentration time plots. • Tmax: Time of maximum observed concentration, obtained directly from the observed concentration time data. • AUClast: The area under the plasma concentration time curve, from time 0 to the last measurable non-zero concentration, calculated by a combination of linear and logarithmic trapezoidal methods (Linear up/log down method). • AUC0-4h: The area under the plasma concentration time curve, from time 0 to the 4 h time point, calculated by a combination of linear and logarithmic trapezoidal methods (Linear up/log down method). • AUCinf: The area from zero time (pre-dose) extrapolated to infinite time (AUCinf) will be calculated as follows: AUCinf=AUClast+Cz/λz. • AUC % Extrap: The percentage of AUCinf obtained by extrapolation (AUC % Extrap) will be calculated as follows:
[formula] • Half-life: Terminal elimination half-life.

[2] = molecular target: T1, human nAChR alpha4alpha6beta2 (Homo sapiens, UniProt P17787+P43681+Q15825); test: Agonist activity, two-electrode voltage clamp in Xenopus oocytes (Example 5); type: cell-based; settings: versus ACh response
T1 construct: expressed in transfected cells; host or cells: Xenopus laevis oocytes (cDNA injection)
T1 sequence (P43681 29-627 limits assumed): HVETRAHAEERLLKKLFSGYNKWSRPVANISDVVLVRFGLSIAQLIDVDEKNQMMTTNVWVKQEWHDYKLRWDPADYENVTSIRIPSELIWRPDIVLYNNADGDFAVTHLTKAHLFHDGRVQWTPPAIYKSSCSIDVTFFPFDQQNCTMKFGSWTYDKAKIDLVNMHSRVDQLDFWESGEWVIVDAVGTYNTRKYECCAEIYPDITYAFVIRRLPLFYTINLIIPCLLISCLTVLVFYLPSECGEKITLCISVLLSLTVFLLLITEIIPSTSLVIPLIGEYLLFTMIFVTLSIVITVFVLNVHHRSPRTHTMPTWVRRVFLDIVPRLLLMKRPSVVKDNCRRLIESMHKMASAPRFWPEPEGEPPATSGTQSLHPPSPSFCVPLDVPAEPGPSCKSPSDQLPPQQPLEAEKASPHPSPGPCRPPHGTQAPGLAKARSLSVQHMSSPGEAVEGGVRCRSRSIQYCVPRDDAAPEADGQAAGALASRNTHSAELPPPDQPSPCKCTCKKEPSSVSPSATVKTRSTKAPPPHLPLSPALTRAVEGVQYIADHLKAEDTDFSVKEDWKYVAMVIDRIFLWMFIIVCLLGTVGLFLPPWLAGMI
T1 sequence (Q15825 26-494): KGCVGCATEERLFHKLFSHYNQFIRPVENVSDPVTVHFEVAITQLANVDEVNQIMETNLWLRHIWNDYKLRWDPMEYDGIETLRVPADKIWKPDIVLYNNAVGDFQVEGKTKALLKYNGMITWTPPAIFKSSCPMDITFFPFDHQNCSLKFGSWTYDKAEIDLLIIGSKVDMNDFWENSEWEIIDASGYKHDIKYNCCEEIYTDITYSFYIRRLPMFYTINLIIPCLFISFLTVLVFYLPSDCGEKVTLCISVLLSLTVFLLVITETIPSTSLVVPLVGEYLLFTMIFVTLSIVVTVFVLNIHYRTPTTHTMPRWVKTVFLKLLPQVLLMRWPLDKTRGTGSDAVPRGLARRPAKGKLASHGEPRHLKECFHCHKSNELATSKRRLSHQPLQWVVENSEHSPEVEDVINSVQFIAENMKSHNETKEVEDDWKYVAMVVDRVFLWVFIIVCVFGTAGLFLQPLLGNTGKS
T1 sequence (P17787 26-502): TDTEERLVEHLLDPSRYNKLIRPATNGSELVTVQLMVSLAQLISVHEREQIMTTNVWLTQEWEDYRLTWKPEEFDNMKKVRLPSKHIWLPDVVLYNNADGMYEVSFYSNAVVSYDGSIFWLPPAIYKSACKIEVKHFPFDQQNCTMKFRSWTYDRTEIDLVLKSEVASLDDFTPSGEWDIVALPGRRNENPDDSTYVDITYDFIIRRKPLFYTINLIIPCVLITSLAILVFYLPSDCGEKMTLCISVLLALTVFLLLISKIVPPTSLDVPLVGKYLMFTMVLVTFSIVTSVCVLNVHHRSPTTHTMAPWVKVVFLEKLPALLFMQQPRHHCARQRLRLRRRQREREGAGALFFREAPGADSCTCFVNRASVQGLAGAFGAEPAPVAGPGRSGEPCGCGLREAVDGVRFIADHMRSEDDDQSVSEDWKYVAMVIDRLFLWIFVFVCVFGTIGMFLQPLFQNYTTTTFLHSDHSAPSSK
Description: All experiments were carried out at human nAChRs expressed in Xenopus oocytes using the method of cDNA expression. Xenopus oocytes were prepared and injected using standard procedures.
Briefly, ovaries were harvested from Xenopus Laevis females that have been deeply anesthetized by cooling at 4° C. and Tricaine methanesulfonate (MS-222 at a concentration of 150 mg/L) in sodium bicarbonate (300 mg/L). Once anesthetized the animal was decapitated and pithed following the rules of animal rights from the Geneva canton. A small piece of ovary was isolated for immediate preparation while the remaining part was placed at 4° C. in a sterile Barth solution containing in mM NaCl 88, KCl 1, NaHCO32.4, HEPES 10, MgSO4.7H2O 0.82, Ca(NO3)2.4H2O 0.33, CaCl2.6H2O 0.41, at pH 7.4, and supplemented with 20 μg/ml of kanamycin, 100 unit/ml penicillin. All recordings were performed at 18° C. and cells superfused with OR2 medium containing in mM: NaCl 88, KCl 2.5, HEPES 5, CaCl2.2H2O 1.8, MgCl2.6H2O 1, pH 7.4.
Currents evoked by ACh or other agonists were recorded using an automated process equipped with standard two-electrode voltage-clamp configuration (TEVC). Data were captured and analyzed using a HiQScreen proprietary data acquisition and analysis software running under Matlab (Mathworks Inc.).
Agonist Preparation: See Example 1. […] The test concentration of acetylcholine chloride was 1280 micromolar.
Experimental Procedures: Injections of cDNAs encoding for the human alpha3beta4, alpha3alpha5beta4, alpha4beta2, alpha4alpha6beta2, and alpha7 were performed in at least 95 oocytes using a proprietary automated injection device. Cellular receptor expression was examined at least two days later. Oocytes were poked with two electrodes and their membrane potential maintained, unless indicated, at −80 mV throughout the experiment.
A protocol to determine agonistic activity in the oocytes expressing the nAChRs was developed. Oocytes expressing a nAChR subtype were exposed to a brief test pulse of acetylcholine (1280 micromolar) while the holding current and response was evaluated. Cells displaying robust currents were washed for 90 seconds. The cells were then exposed to a series of increasing concentrations of a nAChR agonist for 10 seconds each at two minute intervals. The nAChR agonist test concentrations were 0.1, 0.3, 1, 3, 10, 30, 100, 300 (micromolar). The current evoked from exposure to the agonist at each concentration was recorded. For oocytes expressing alpha7 nAChRs, exposure to the agonist was reduced to 5 seconds. This process was repeated for each agonist tested against each type of nAChR expressing cell.

[3] = Measured plasma Cmax after nasal spray (Example 4); type: in vivo; settings: human, inhaled or intranasal; blood plasma of 30 individuals; nasal spray of 1.1% compound 1 free base (2.0% hemi-galactarate dihydrate), 200 microliters total, about 2216 micrograms free base
Description: A dose of a nAChR agonist, or a pharmaceutically acceptable salt thereof, is administered to an individual. Examples of dose and volume ranges are described herein.
A blood sample is collected from an individual before administration of a nAChR agonist, or a pharmaceutically acceptable salt thereof. After administration of the nAChR agonist, or a pharmaceutically acceptable salt thereof, to the individual, multiple blood samples are collected over a period of time at certain intervals. For instance, blood samples are collected at 10 minutes, 20 minutes, 30 minutes, 1 hour, 2 hours, 3 hours, and 4 hours after administration of the nAChR agonist, or a pharmaceutically acceptable salt thereof.
Blood samples (4 mL in K2EDTA tubes) are collected from an arm vein into Vacutainer tubes containing K2EDTA. […]
All pharmacokinetic (PK) analyses and reporting are performed according to generally accepted standard operating procedures and protocol specifications. Pharmacokinetic parameters are calculated by use of generally accepted software tools, for instance Phoenix® WinNonlin® 8.0.
A plasma concentration time plot is created by plotting the concentration of the nAChR agonist, or pharmaceutically acceptable salt thereof, as a function of time. Cmax is calculated by inspection of an individual's plasma concentration time plot. […] The Cmax is calculated for an individual after a treatment. […]

[4] = Max, N=7, Day 29 dose after 28 days BID
[5] = Min, N=7, Day 29 dose after 28 days BID
[6] = human, plasma, other: intranasal spray, […] Compound 1, 50 μL spray in each nostril, Max, N=7, Day 29 dose after 28 days BID
[7] = human, plasma, other: intranasal spray, […] Compound 1, 50 μL spray in each nostril, Mean, N=7, Day 29 dose after 28 days BID
[8] = human, plasma, other: intranasal spray, […] Compound 1, 50 μL spray in each nostril, Median, N=7, Day 29 dose after 28 days BID

Compound: C(=C\[C@H]1CCNC1)/c1cncnc1 [Compound 1, (R)-5-((E)-2-pyrrolidin-3-ylvinyl)pyrimidine]
- AUC % Extrap [1, 4]: 41.1%
- Tmax [1, 4]: 1.2 h
- AUC % Extrap ([1]; Mean, N=7, Day 29 dose after 28 days BID): 21.3%
- AUC % Extrap ([1]; Median, N=7, Day 29 dose after 28 days BID): 23.3%
- AUC % Extrap [1, 5]: 3.69% and 3.67%
- AUCinf [1, 5]: 1.21 ng·h/mL
- AUClast [1, 5]: 0.801 ng·h/mL
- Cmax [1, 5]: 0.621 ng/mL
- Tmax [1, 5]: 0.17 h
- half-life [1, 5]: 0.852 h
- half-life ([1]; human, plasma, inhaled or intranasal, […] Compound 1, 50 μL spray in each nostril, Mean, N=7, Day 29 single intranasal dose of […] Compound 1 (2.0% hemigalactarate salt) after 28 days BID, 50 μL per nostril, read-out: Half-life (converted)): 1.58 ± 0.818 h
- Cmax ([1]; human, plasma, other: intranasal spray, […] Compound 1, 50 μL spray in each nostril, Max (individual subject maximum), N=7, Day 29 dose after 28 days BID, read-out: Cmax): 5.49 ng/mL
- AUC(0-inf) [1, 6]: 12.5 ng·h/mL
- AUC(0-t) [1, 6]: 12.1 ng·h/mL
- half-life ([1]; human, plasma, other: intranasal spray, […] Compound 1, 50 μL spray in each nostril, Max, N=7, Day 29 dose after 28 days BID, read-out: Half-life (converted)): 2.83 h
- AUC(0-inf) [1, 7]: 6.22 ± 4.63 ng·h/mL
- AUC(0-t) [1, 7]: 5.22 ± 4.52 ng·h/mL
- Cmax ([1]; human, plasma, other: intranasal spray, […] Compound 1, 50 μL spray in each nostril, Mean, N=7, Day 29 dose after 28 days BID, read-out: Cmax): 2.26 ± 1.96 ng/mL
- Tmax ([1]; human, plasma, other: intranasal spray, […] Compound 1, 50 μL spray in each nostril, Mean, N=7, Day 29 dose after 28 days BID, read-out: Tmax): 0.7 h
- AUC(0-inf) [1, 8]: 5.67 ng·h/mL
- AUC(0-t) [1, 8]: 4.35 ng·h/mL
- Cmax ([1]; human, plasma, other: intranasal spray, […] Compound 1, 50 μL spray in each nostril, Median, N=7, Day 29 dose after 28 days BID, read-out: Cmax): 1.35 ng/mL
- half-life ([1]; human, plasma, other: intranasal spray, […] Compound 1, 50 μL spray in each nostril, Median, N=7, Day 29 dose after 28 days BID, read-out: Half-life (converted)): 1.12 h
- Tmax ([1]; human, plasma, other: intranasal spray, […] Compound 1, 50 μL spray in each nostril, Median, N=7, Day 29 dose after 28 days BID, read-out: Tmax): 0.5 h
- C0 ([1]; human, plasma, other: intranasal spray, […] Compound 1, 50 μL spray in each nostril, Day 29 predose after 28 days BID, detected in 4 out of 7 subjects, read-out: mean plasma concentration at time zero (predose)): 0.264 ng/mL
- concentration at 1 h ([1]; human, plasma, other: intranasal spray, […] Compound 1, 50 μL spray in each nostril, at 1 h after intranasal administration on Day 29, read-out: peak of mean plasma exposure): 2.07 ng/mL
- concentration at 24 h ([1]; human, plasma, other: intranasal spray, […] Compound 1, 50 μL spray in each nostril, no subject above lower limit of quantification, read-out: plasma concentration at 24 h post administration): < 0.2 ng/mL
- fraction cleared from systemic circulation before the next administration ([1]; if administered every 12 hours (4 half-lives), from maximum individual half-life): > 94%
- agonist character [2]: full agonist
- Cmax [3]: 2.92 ng/mL
